{"source": "patent EP0267994B2", "about": "“The use of a metal complex for the manufacture of a composition for treating dental structures” (NATIONAL RESEARCH LABORATORIES, priority 1986, dated 1988)", "experiment": "case series: professional polishing of the six lower front teeth of heavy calculus formers with MCC paste", "type": "in vivo, human", "experimental": "This is an example of a series of cases of patients who have been confirmed as heavy calculus formers that were treated with the 1:1 metal complex. Generally, the medication utilized was composed of the active ingredient, disodium monocopper(II) citrate (MCC), C.A.S. Registry Number: 65330-59-8, dispersed in an aqueous vehicle comprising aluminum hydroxide, dicalcium phosphate, sorbitol, carboxymethylcellulose and water to form a paste. All of the cases incorporated herewith, as an example, were confirmed diagnostically by a dentist employing the usual examining techniques, i.e., physical examination, etc. The ages of the patients who participated in this example ranged from 35 to 73 years.\nAll of the patients in this example, prior to their treatment with the 1:1 metal complexes, had self-treated. In self-treating, all patients brushed with a standard dentifrice, flossed, and applied a mixture of baking soda, salt and water to their teeth at least once a day to contain or control calculus build up. Subsequent to and in conjunction with self-treatment, each patient received professionally a standard course of therapy which involved routinely scaling the teeth with a hand pick and an ultrasonic scaler and polishing the teeth mechanically with a mixture of pumice and stannous fluoride via a rubber prophylaxis cup. The patients in this example were treated every 3, 4 or 6 months and the length of standard treatment by the dentist ranged from about 4 years to about 12 years.\nAt the time of the first examination by the dentist, each patient's mouth was in extremely poor condition, and gross calculus build up was observed; however, no caries or restorations were present.\nSubsequent to the standard professional therapy, treatment of all sides of the six lower front teeth with MCC were initiated and performed by the dentist every 3, 4 or 6 months for a total of 10 months. Treatment consisted of first scaling the six lower front teeth with a hand pick and an ultrasonic scaler to debride the teeth and then polishing the teeth mechanically with the above described MCC mixture via a rubber prophylaxis cup. […] The overall appearance of the six lower front teeth was excellent. […] For a more detailed presentation of this example, see the following table.", "note": "“And” between values parts separate entries of the source, which are not always exact repeats. Equal entries are not always repeated."}
{"smiles": "O=C([O-])CC(O)(CC(=O)[O-])C(=O)O.[Cu+2]", "note": "[MCC, disodium-monocopper(II) citrate]", "values": [{"measurement": "Amt. of Calculus after Application of MCC", "setting": "Calculus Accumulation code 1 = worst condition, 10 = best condition (total absence of accumulation), one value per patient, six lower front teeth, MCC paste every 3, 4 or 6 months for 10 months", "result": "+8 (2×) and +9 (2×) and +7"}, {"measurement": "overall appearance of the six lower front teeth", "setting": "after therapy with the copper complex", "result": "excellent"}, {"measurement": "calculus accumulation on the six lower front teeth", "setting": "all patients, compared to the remaining teeth treated with the standard therapy", "result": "dramatic reduction in calculus accumulation"}, {"measurement": "side effects or tissue irritation", "setting": "five patients, treatment over 10 months", "result": "no side effects or tissue irritation"}, {"measurement": "taste complaint", "setting": "two of five patients", "result": "metallic taste from the MCC mixture which subsided immediately upon rinsing"}]}
